{
  "source": "patent US10118930B2",
  "about": "“Piperidinylpyrazolopyrimidinones and their use” (BAYER PHARMA AKTIENGESELLSCHAFT, priority 2015, dated 2018)",
  "note": "Counter-ions that a name gives are not always drawn.",
  "data": [
    {"test_system": "clot lysis (fibrinolysis) in diluted human citrated plasma, tPA-induced", "test": "Plasma-based clot lysis assay (5%)", "type": "biochemical", "conditions": "human citrated platelet-poor plasma 5%, fibrinogen 3 μM, CaCl2 10 mM, tPA 0.2 nM, 37° C., OD at 405 nm", "method": "B-2. Plasma-based Clot Lysis Assay (5%)\nThe clot-lysis test system configures the kinetics of clot formation and degradation in vitro and allows quantifying modulation of the process by selected test compounds.\nThe test compounds were dissolved in 1% acetic acid and further complemented with an equal volume of DMSO. The resulting stock solutions were serially diluted in 0.5% acetic acid/50% DMSO. 1 μL aliquots of these solutions were placed into 384 well microplates (Greiner, black, transparent bottom), followed by 30 μL of diluted human citrated plasma (platelet-poor, final concentration: 5%; supplemented with fibrinogen, final concentration: 3 μM; dilution buffer: 20 mM HEPES, 150 mM NaCl, 0.01% Brij (pH 7)). The reactions were started by addition of 20 μL of CaCl2 (final concentration: 10 mM), and tPA (tissue plasminogen activator, final concentration: 0.2 nM) in dilution buffer, followed by an additional volume of 20 μL dilution buffer for improved mixing. The reactions were incubated at 37° C. […] IC50 values were determined by comparing the resulting time courses with the time course of a blank control reaction.", "units": {"IC50": "nM"}, "values": [
      {"smiles": "CCCN(CC)C(=O)c1cnn2c(C3CCNCC3)cc(=O)[nH]c12", "note": "[Example 96, N-ethyl-5-oxo-7-(piperidin-4-yl)-N-propyl-4,5-dihydropyrazolo[1,5-a]pyrimidine-3-carboxamide hydrochloride]", "IC50": 33},
      {"smiles": "CN(Cc1ccccc1)C(=O)c1cnn2c(C3CCNCC3)cc(=O)[nH]c12", "note": "[Example 97, N-benzyl-N-methyl-5-oxo-7-(piperidin-4-yl)-4,5-dihydropyrazolo[1,5-a]pyrimidine-3-carboxamide hydrochloride]", "IC50": 24},
      {"smiles": "CCC(=O)N1CCN(C(=O)c2cnn3c(C4CCNCC4)cc(=O)[nH]c23)CC1", "note": "[Example 98, 7-(piperidin-4-yl)-3-[(4-propanoylpiperazin-1-yl)carbonyl]pyrazolo[1,5-a]pyrimidin-5(4H)-one hydrochloride]", "IC50": 90},
      {"smiles": "O=C1CCN(C(=O)c2cnn3c(C4CCNCC4)cc(=O)[nH]c23)CCN1", "note": "[Example 100, 3-[(5-oxo-1,4-diazepan-1-yl)carbonyl]-7-(piperidin-4-yl)pyrazolo[1,5-a]pyrimidin-5(4H)-one hydrochloride]", "IC50": 110},
      {"smiles": "CN(CC(F)(F)F)C(=O)c1cnn2c(C3CCNCC3)cc(=O)[nH]c12", "note": "[Example 103, N-methyl-5-oxo-7-(piperidin-4-yl)-N-(2,2,2-trifluoroethyl)-4,5-dihydropyrazolo[1,5-a]pyrimidine-3-carboxamide hydrochloride]", "IC50": 35},
      {"smiles": "CC1CCCN(C(=O)c2cnn3c(C4CCNCC4)cc(=O)[nH]c23)C1C", "note": "(centres unmarked) [Example 104, 3-[(2,3-dimethylpiperidin-1-yl)carbonyl]-7-(piperidin-4-yl)pyrazolo[1,5-a]pyrimidin-5(4H)-one hydrochloride]", "IC50": 31},
      {"smiles": "COCC(C)(C)c1noc(-c2cnn3c(C4CCNCC4)cc(=O)[nH]c23)n1", "note": "[Example 105, 3-[3-(1-methoxy-2-methylpropan-2-yl)-1,2,4-oxadiazol-5-yl]-7-(piperidin-4-yl)pyrazolo[1,5-a]pyrimidin-5(4H)-one]", "IC50": 95},
      {"smiles": "O=c1cc(C2CCNCC2)n2ncc(-c3nc(Cc4ccccc4)no3)c2[nH]1", "note": "[Example 106, 3-(3-benzyl-1,2,4-oxadiazol-5-yl)-7-(piperidin-4-yl)pyrazolo[1,5-a]pyrimidin-5(4H)-one]", "IC50": 63},
      {"smiles": "CCc1noc(-c2cnn3c(C4CCNCC4)cc(=O)[nH]c23)n1", "note": "[Example 107, 3-(3-ethyl-1,2,4-oxadiazol-5-yl)-7-(piperidin-4-yl)pyrazolo[1,5-a]pyrimidin-5(4H)-one]", "IC50": 49},
      {"smiles": "O=c1cc(C2CCNCC2)n2ncc(-c3nc(C4CCC4)no3)c2[nH]1", "note": "[Example 108, 3-(3-cyclobutyl-1,2,4-oxadiazol-5-yl)-7-(piperidin-4-yl)pyrazolo[1,5-a]pyrimidin-5(4H)-one]", "IC50": 76},
      {"smiles": "O=c1cc(C2CCNCC2)n2ncc(-c3nc(-c4ccc(F)s4)no3)c2[nH]1", "note": "[Example 109, 3-[3-(5-fluorothiophen-2-yl)-1,2,4-oxadiazol-5-yl]-7-(piperidin-4-yl)pyrazolo[1,5-a]pyrimidin-5(4H)-one]", "IC50": 120},
      {"smiles": "O=c1cc(C2CCNCC2)n2ncc(-c3nc(-c4ccco4)no3)c2[nH]1", "note": "[Example 110]", "IC50": 82},
      {"smiles": "O=c1cc(C2CCNCC2)n2ncc(-c3nc(-c4cccc(F)c4)no3)c2[nH]1", "note": "[Example 112, 3-[3-(3-Fluorophenyl)-1,2,4-oxadiazol-5-yl]-7-(piperidin-4-yl)pyrazolo[1,5-a]pyrimidin-5 (4H)-one hydrochloride]", "IC50": 29},
      {"smiles": "O=c1cc(C2CCNCC2)n2ncc(-c3nc(-c4ccc(C(F)(F)F)cc4)no3)c2[nH]1", "note": "[Example 113, 7-(Piperidin-4-yl)-3-{3-[4-(trifluoromethyl)phenyl]-1,2,4-oxadiazol-5-yl}pyrazolo[1,5-a]pyrimidin-5(4H)-one hydrochloride]", "IC50": 44},
      {"smiles": "O=c1cc(C2CCNCC2)n2ncc(-c3nc(-c4ccc(OC(F)(F)F)cc4)no3)c2[nH]1", "note": "[Example 115, 7-(Piperidin-4-yl)-3-{3-[4-(trifluoromethoxy)phenyl]-1,2,4-oxadiazol-5-yl}pyrazolo[1,5-a]pyrimidin-5(4H)-one hydrochloride]", "IC50": 27},
      {"smiles": "COc1cc(-c2noc(-c3cnn4c(C5CCNCC5)cc(=O)[nH]c34)n2)ccc1C", "note": "[Example 116, 3-[3-(3-Methoxy-4-methylphenyl)-1,2,4-oxadiazol-5-yl]-7-(piperidin-4-yl)pyrazolo[1,5-a]pyrimidin-5(4H)-one hydrochloride]", "IC50": 39},
      {"smiles": "Cc1ccc(-c2noc(-c3cnn4c(C5CCNCC5)cc(=O)[nH]c34)n2)cc1F", "note": "[Example 117, 3-[3-(3-Fluoro-4-methylphenyl)-1,2,4-oxadiazol-5-yl]-7-(piperidin-4-yl)pyrazolo[1,5-a]pyrimidin-5(4H)-one hydrochloride]", "IC50": 38},
      {"smiles": "Cc1ccccc1-c1noc(-c2cnn3c(C4CCNCC4)cc(=O)[nH]c23)n1", "note": "[Example 119, 3-[3-(2-Methylphenyl)-1,2,4-oxadiazol-5-yl]-7-(piperidin-4-yl)pyrazolo[1,5-a]pyrimidin-5 (4H)-one hydrochloride]", "IC50": 79},
      {"smiles": "Cc1cccc(-c2noc(-c3cnn4c(C5CCNCC5)cc(=O)[nH]c34)n2)c1", "note": "[Example 120, 3-[3-(3-Methylphenyl)-1,2,4-oxadiazol-5-yl]-7-(piperidin-4-yl)pyrazolo[1,5-a]pyrimidin-5 (4H)-one hydrochloride]", "IC50": 35},
      {"smiles": "COc1ccc(-c2noc(-c3cnn4c(C5CCNCC5)cc(=O)[nH]c34)n2)cc1F", "note": "[Example 122, 3-[3-(3-Fluoro-4-methoxyphenyl)-1,2,4-oxadiazol-5-yl]-7-(piperidin-4-yl)pyrazolo[1,5-a]pyrimidin-5(4H)-one hydrochloride]", "IC50": 35},
      {"smiles": "Cc1ccc(-c2noc(-c3cnn4c(C5CCNCC5)cc(=O)[nH]c34)n2)cc1Cl", "note": "[Example 123, 3-[3-(3-Chloro-4-methylphenyl)-1,2,4-oxadiazol-5-yl]-7-(piperidin-4-yl)pyrazolo[1,5-a]pyrimidin-5(4H)-one hydrochloride]", "IC50": 47},
      {"smiles": "O=c1cc(C2CCNCC2)n2ncc(-c3nc(-c4cccc(OC(F)(F)F)c4)no3)c2[nH]1", "note": "[Example 124, 7-(Piperidin-4-yl)-3-{3-[3-(trifluoromethoxy)phenyl]-1,2,4-oxadiazol-5-yl}pyrazolo[1,5-a]pyrimidin-5(4H)-one hydrochloride]", "IC50": 38},
      {"smiles": "COc1cccc(-c2noc(-c3cnn4c(C5CCNCC5)cc(=O)[nH]c34)n2)c1", "note": "[Example 125, 3-[3-(3-Methoxyphenyl)-1,2,4-oxadiazol-5-yl]-7-(piperidin-4-yl)pyrazolo[1,5-a]pyrimidin-5 (4H)-one hydrochloride]", "IC50": 40},
      {"smiles": "Cc1ccc(-c2noc(-c3cnn4c(C5CCNCC5)cc(=O)[nH]c34)n2)c(C)c1", "note": "[Example 127, 3-[3-(2,4-Dimethylphenyl)-1,2,4-oxadiazol-5-yl]-7-(piperidin-4-yl)pyrazolo[1,5-a]pyrimidin-5(4H)-one hydrochloride]", "IC50": 62},
      {"smiles": "Cc1ccc(-c2noc(-c3cnn4c(C5CCNCC5)cc(=O)[nH]c34)n2)c(C(F)(F)F)c1", "note": "[Example 128, 3-{3-[4-Methyl-2-(trifluoromethyl)phenyl]-1,2,4-oxadiazol-5-yl}-7-(piperidin-4-yl)pyrazolo[1,5-a]pyrimidin-5(4H)-one hydrochloride]", "IC50": 110},
      {"smiles": "Cc1ccc(-c2noc(-c3cnn4c(C5CCNCC5)cc(=O)[nH]c34)n2)c(Cl)c1", "note": "[Example 130, 3-[3-(2-Chloro-4-methylphenyl)-1,2,4-oxadiazol-5-yl]-7-(piperidin-4-yl)pyrazolo[1,5-a]pyrimidin-5(4H)-one hydrochloride]", "IC50": 41},
      {"smiles": "O=c1cc(C2CCNCC2)n2ncc(-c3nc(-c4cccc(Cl)c4F)no3)c2[nH]1", "note": "[Example 132, 3-[3-(3-Chloro-2-fluorophenyl)-1,2,4-oxadiazol-5-yl]-7-(piperidin-4-yl)pyrazolo[1,5-a]pyrimidin-5(4H)-one hydrochloride]", "IC50": 35},
      {"smiles": "O=c1cc(C2CCNCC2)n2ncc(-c3nc(-c4cccc(Cl)n4)no3)c2[nH]1", "note": "[Example 133, 3-[3-(6-Chloropyridin-2-yl)-1,2,4-oxadiazol-5-yl]-7-(piperidin-4-yl)pyrazolo[1,5-a]pyrimidin-5(4H)-one hydrochloride]", "IC50": 39},
      {"smiles": "O=c1cc(C2CCNCC2)n2ncc(-c3nc(-c4ccc(C(F)(F)F)c(F)c4)no3)c2[nH]1", "note": "[Example 134, 3-{3-[3-Fluoro-4-(trifluoromethyl)phenyl]-1,2,4-oxadiazol-5-yl}-7-(piperidin-4-yl)pyrazolo[1,5-a]pyrimidin-5(4H)-one hydrochloride]", "IC50": 43},
      {"smiles": "O=c1cc(C2CCNCC2)n2ncc(-c3nc(-c4ccc(C(F)(F)F)cc4Cl)no3)c2[nH]1", "note": "[Example 136, 3-{3-[2-Chloro-4-(trifluoromethyl)phenyl]-1,2,4-oxadiazol-5-yl}-7-(piperidin-4-yl)pyrazolo[1,5-a]pyrimidin-5(4H)-one hydrochloride]", "IC50": 43},
      {"smiles": "O=c1cc(C2CCNCC2)n2ncc(-c3nc(-c4cc(Cl)ccc4F)no3)c2[nH]1", "note": "[Example 137, 3-[3-(5-Chloro-2-fluorophenyl)-1,2,4-oxadiazol-5-yl]-7-(piperidin-4-yl)pyrazolo[1,5-a]pyrimidin-5(4H)-one hydrochloride]", "IC50": 31},
      {"smiles": "Cc1cc(C(F)(F)F)ccc1-c1noc(-c2cnn3c(C4CCNCC4)cc(=O)[nH]c23)n1", "note": "[Example 139, 3-{3-[2-Methyl-4-(trifluoromethyl)phenyl]-1,2,4-oxadiazol-5-yl}-7-(piperidin-4-yl)pyrazolo[1,5-a]pyrimidin-5(4H)-one hydrochloride]", "IC50": 41}
    ]}
  ]
}
